Results on six molecules are retold here after US6479487B1, “6, 9-disubstituted 2-[trans-(4-aminocyclohexyl)amino] purines” (Aventis Pharmaceuticals Inc., priority 1998, dated 2002).

“And” between values parts separate entries of the source, which are not always exact repeats. Equal values may be shown once. Where a name gives a salt, the structure may show the parent alone. Read-outs that look alike come from different tables or passages of the source.

In one assay the target is T1, cdk2/cyclin E (Homo sapiens, UniProt P24941).
T1 construct: made in house; host or cells: insect cells (baculovirus co-infection)
Kind of assay: Cyclin-Dependent Kinase 2 Assay (cdk2/cyclin E, GST-Rb substrate). Format: biochemical. The conditions noted are these: recombinant cdk2/cyclin E, 10 μM ATP, 30 min at 30° C., several values in a cell = separate determinations, read-out: CDK-2 Inhibition IC50. The procedure: Substrate: GST-Rb as described above for cdk4/cyclin D1
Assay conditions for cdk2/cyclin E were identical to those for cdk4/cyclin D1 including the substrate. The concentration of recombinant cdk2/cyclin E in the assay was 0.1 μg per 100 μl assay. Incubation was for 30 min at 30° C.

The next assay relates to MCF-7. Kind of assay: In vitro tumor cell proliferation, MCF-7. The format is cell-based, human. As to conditions: sulforhodamine B or CyQUANT assay, read-out: In vitro Tumor Cell Proliferation (IC50, μM) Breast MCF-7. The procedure:
(§1) The proliferation of tumor cells was measured using a sulforhodamine B assay as described in Skehan, P., et al., J. Natl. Cancer Inst. […] Tumor cells were harvested with trypsin-EDTA, cells that excluded trypan blue were counted, added to 96-well plates and incubated overnight at 37° C. Drug was added to the wells following dilution in culture medium. Three days later, the medium was removed and replenished with medium containing fresh drug and incubated an additional 4 days. The cells were then fixed with 0.1 ml 10% trichloroacetic acid for 60 min at 4° C. The plates were rinsed five times with tap water, air-dried and stained for 30 min with 0.4% sulforhodamine B in 1% acetic acid and air-dried.
(§2) Alternatively, the CyQUANT cell proliferation assay was used to quantitate cell proliferation.
(§3) Alternatively, the CyQUANT cell proliferation assay was used to quantify tumor cell proliferation. Tumor cells were harvested with trypsin-EDTA, cells that excluded trypan blue were counted, added to 96-well plates and incubated overnight at 37° C. Drug was added to the wells following dilution in culture medium. Three days later the medium was removed and the plates frozen at −80° C. for at least 30 minutes.
MCF7 is a human breast adenocarcinoma, hormone-dependent (HTB 22);

A further assay concerns HCT-15. Kind of assay: In vitro tumor cell proliferation, HCT-15. The conditions noted are these: read-out: In vitro Tumor Cell Proliferation (IC50, μM) Colon HCT-15. Format: cell-based, human. The procedure:
as §1, §2, §3

A further assay relates to HT-29. As to the kind of experiment: In vitro tumor cell proliferation, HT-29. Format: cell-based, human. The conditions noted are these: many values given with an undefined *, read-out: In vitro Tumor Cell Proliferation (IC50, μM) Colon HT-29. An outline of the steps:
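Growth was quantified either with CyQUANT, plates frozen at −80° C after 3 days of drug, or by sulforhodamine B staining of TCA-fixed cells after 3 days of drug plus 4 days with fresh drug. Trypan blue-excluding HT-29 cells were plated overnight at 37° C before dosing.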

The target in another assay is T2, cdk4/cyclin D1 (Homo sapiens, UniProt P11802).
T2 construct: made in house; host or cells: Sf9 insect cells (Bac-to-Bac baculovirus, pFastBac)
As to the kind of experiment: Cyclin-dependent Kinase 4 Assay (cdk4/cyclin D1, GST-Rb substrate). Format: biochemical. The conditions noted are these: cdk4/cyclin D1 insect cell lysate, 10 μM ATP, 30 min at 37° C., several values = separate determinations, read-out: CDK4 Inhibition IC50. An outline of the steps: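 IC50 against cdk4 measured by scintillation counting of bead-bound GST-Rb (0.5 μg) after filtration and four TNEN washes. Reaction was 30 min at 37 °C in HEPES pH 7.5 buffer with 10 mM MgCl2 and 1 mM EGTA. Enzyme source was 0.1 μg Sf9 lysate coinfected with cdk4 and cyclin D1.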

In a further assay the test system is PC-3. As to the kind of experiment: In vitro tumor cell proliferation, PC-3. The format is cell-based, human. As to conditions: many values given with an undefined *, read-out: In vitro Tumor Cell Proliferation (IC50, μM) Prostate PC-3. An outline of the steps: (§4)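 Growth was quantified by sulforhodamine B staining of TCA-fixed cells after 3 days of drug plus 4 more days with fresh drug, or by CyQUANT after 3 days of drug and freezing at −80° C. Counted viable cells were plated and incubated overnight at 37° C before drug.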

A further assay relates to DU145. Kind of assay: In vitro tumor cell proliferation, DU145. Format: cell-based, human. The conditions noted are these: many values given with an undefined *, read-out: In vitro Tumor Cell Proliferation (IC50, μM) Prostate DU145. An outline of the steps: as §4
The next assay concerns A549. Kind of assay: In vitro tumor cell proliferation, A549. Format: cell-based, human. As to conditions: many values given with an undefined *, read-out: In vitro Tumor Cell Proliferation (IC50, μM) Lung A549. An outline of the steps: as §4
The subject of another assay is DMS-114. Kind of assay: In vitro tumor cell proliferation, DMS-114. The format is cell-based, human. As to conditions: many values given with an undefined *, read-out: In vitro Tumor Cell Proliferation (IC50, μM) Lung DMS-114. An outline of the steps: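 Human small cell lung carcinoma DMS-114 cells plated overnight, then drug-treated for 3 days, medium and drug renewed, and incubated 4 more days. Growth read by sulforhodamine B staining after TCA fixation; alternatively by CyQUANT after 3 days' drug exposure and freezing at −80 °C.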

A further assay has as its system MDA-MB-231. As to the kind of experiment: In vitro tumor cell proliferation, MDA-MB-231. The format is cell-based, human. As to conditions: sulforhodamine B or CyQUANT assay, many values given with an undefined *, read-out: In vitro Tumor Cell Proliferation (IC50, μM) Breast MDA-MB-231. An outline of the steps: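 Proliferation quantified by SRB staining of TCA-fixed cells after 3 days of drug plus 4 days with replenished drug, following overnight attachment at 37 °C.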

Assay [1] relates to neuronal PC12 cells and sympathetic neurons. As to conditions: two model systems of neuronal survival; Park et al. 1996; cited from earlier work.
A further assay relates to cortical neurons. As to conditions: cited from earlier work.
The test system of assay [2] is PC12 cells, or rat sympathetic neurons. As to conditions: cited from earlier work.
Setting [3] is: Homo sapiens, MDA-MB-231, MDA-MB-231.

T2 sequence (P11802 whole entry): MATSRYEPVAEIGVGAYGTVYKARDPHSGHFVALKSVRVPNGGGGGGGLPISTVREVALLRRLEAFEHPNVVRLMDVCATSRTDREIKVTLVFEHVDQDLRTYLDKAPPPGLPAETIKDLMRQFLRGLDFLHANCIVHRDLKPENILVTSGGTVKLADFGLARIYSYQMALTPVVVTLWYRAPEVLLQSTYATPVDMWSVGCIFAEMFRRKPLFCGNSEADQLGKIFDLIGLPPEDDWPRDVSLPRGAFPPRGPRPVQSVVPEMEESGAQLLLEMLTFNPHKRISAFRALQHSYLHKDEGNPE
T2 sequence (P24385 whole entry partner): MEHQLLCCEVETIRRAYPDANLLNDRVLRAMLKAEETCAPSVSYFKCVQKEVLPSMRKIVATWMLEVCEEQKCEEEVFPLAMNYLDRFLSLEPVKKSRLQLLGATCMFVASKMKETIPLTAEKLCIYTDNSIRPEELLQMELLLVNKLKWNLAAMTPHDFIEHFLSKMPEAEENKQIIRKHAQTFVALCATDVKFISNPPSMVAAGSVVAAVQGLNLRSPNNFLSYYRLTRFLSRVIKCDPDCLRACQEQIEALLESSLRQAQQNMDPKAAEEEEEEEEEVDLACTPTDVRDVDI

Turning to `N[C@H]1CC[C@H](Nc2nc(NCc3cccc(I)c3)c3ncn(C4C=CCC4)c3n2)CC1` (relative stereo) [Example 35, 2-[Trans-(4-aminocyclohexyl)amino]-6-[(3-iodobenzyl)amino]-9-(2-cyclopentenyl)purine hydrochloride], the IC50 is 490 nM and 140 nM on cdk2/cyclin E; 2.9 µM with MCF-7 (Homo sapiens, MCF7, MCF-7); 1.9 µM in the assay with MCF-7 (MCF-7, hydrochloride); 4 µM in the assay on HCT-15 (HCT-15, hydrochloride); 5.7 µM with HCT-15 (Homo sapiens, HCT-15, HCT-15); 1.9 µM with HT-29 (HT-29, hydrochloride). In addition, the IC50 was 2.1 µM in the assay with HT-29 (Homo sapiens, HT-29, HT-29); 9400 nM and 7700 nM at cdk4/cyclin D1.

As to `N[C@H]1CC[C@H](Nc2nc(NCc3ccc(C(F)(F)F)cc3)c3ncn(C4CCCC4)c3n2)CC1` [Example 1, 2-[Trans-(4-aminocyclohexyl)amino]-6-[(4-trifluorobenzyl)amino]-9-cyclopentylpurine dihydrochloride], the IC50 at cdk2/cyclin E was 120 nM and 81 nM; with MCF-7 (Homo sapiens, MCF7, MCF-7) it was 1.2 µM; with MCF-7 (MCF-7, dihydrochloride) it was 1.6 µM; in the assay with HCT-15 (HCT-15, dihydrochloride) it was 2.5 µM; with HCT-15 (Homo sapiens, HCT-15, HCT-15), 2.4 µM; in the assay with PC-3 (Homo sapiens, PC-3, PC-3) it was 0.96 µM. Also, the IC50 in the assay with PC-3 (PC-3, dihydrochloride) turned out to be 1 µM; in the assay on DU145 (DU145, dihydrochloride), 1.5 µM; in the assay with DU145 (Homo sapiens, DU-145, DU145), 1.4 µM; with A549 (A549, dihydrochloride), 0.9 µM; with A549 (Homo sapiens, A549, A549) it was 0.97 µM; with HT-29 (HT-29, dihydrochloride), 1.6 µM. The IC50 in the assay with HT-29 (Homo sapiens, HT-29, HT-29) was 1.5 µM; at cdk4/cyclin D1, 2000 nM and 2700 nM and 1700 nM; with DMS-114 (DMS-114, dihydrochloride) it was 0.86 µM; in the assay on DMS-114 (Homo sapiens, DMS-114, DMS-114) it was 1.1 µM; in the assay with MDA-MB-231 (setting [3]), 1.4 µM; in the assay on MDA-MB-231 (MDA-MB-231, dihydrochloride), 1.5 µM.

As for `COc1cc(CNc2nc(N[C@H]3CC[C@H](N)CC3)nc3c2ncn3C2CCCC2)cc(OC)c1` [Example 28, 2-[Trans-(4-aminocyclohexyl)amino]-6-[(3 5-dimethoxybenzyl)amino]-9-cyclopentylpurine dihydrochloride], the IC50 at cdk2/cyclin E is 480 nM; with MCF-7 (Homo sapiens, MCF7, MCF-7), 5.6 µM; in the assay with MCF-7 (MCF-7, dihydrochloride), 11 µM; with HCT-15 (Homo sapiens, HCT-15, HCT-15), over 20 µM; in the assay with PC-3 (Homo sapiens, PC-3, PC-3), 4.8 µM; in the assay with PC-3 (PC-3, dihydrochloride), 6.4 µM. The IC50 in the assay on DU145 (DU145, dihydrochloride) was 9.1 µM; with DU145 (Homo sapiens, DU-145, DU145), 6.4 µM; with A549 (Homo sapiens, A549, A549) it was 1.9 µM; in the assay with HT-29 (Homo sapiens, HT-29, HT-29), 12 µM; at cdk4/cyclin D1, 2200 nM and 2600 nM; in the assay on DMS-114 (DMS-114, dihydrochloride) it was 7.7 µM. Besides, the IC50 in the assay with DMS-114 (Homo sapiens, DMS-114, DMS-114) came out at 6.1 µM; in the assay with MDA-MB-231 (setting [3]), 12 µM.

For `COc1ccc(CNc2nc(N[C@H]3CC[C@H](N)CC3)nc3c2ncn3C2CCCC2)cc1OC` [Example 34, 2-[Trans-(4-aminocyclohexyl)amino]-6-[3,4-dimethoxybenzyl)amino]-9-cyclopentylpurine dihydrochloride], the IC50 at cdk2/cyclin E came out at 80 nM; in the assay with MCF-7 (Homo sapiens, MCF7, MCF-7), 2.3 µM; with MCF-7 (MCF-7, dihydrochloride), 3.5 µM; in the assay with HCT-15 (Homo sapiens, HCT-15, HCT-15), 7.7 µM; in the assay on PC-3 (Homo sapiens, PC-3, PC-3) it was 1 µM; in the assay with PC-3 (PC-3, dihydrochloride), 2 µM. The IC50 was 4.3 µM with DU145 (DU145, dihydrochloride); 2.7 µM in the assay on DU145 (Homo sapiens, DU-145, DU145); 4.8 µM in the assay with A549 (A549, dihydrochloride); 3.4 µM in the assay on A549 (Homo sapiens, A549, A549); 6 µM in the assay on HT-29 (HT-29, dihydrochloride); 3.4 µM in the assay with HT-29 (Homo sapiens, HT-29, HT-29). Besides, the IC50 on cdk4/cyclin D1 is 1200 nM and 800 nM; in the assay with DMS-114 (DMS-114, dihydrochloride), 4.5 µM; in the assay on DMS-114 (Homo sapiens, DMS-114, DMS-114) it was 4.2 µM; with MDA-MB-231 (setting [3]), 3.4 µM; in the assay on MDA-MB-231 (MDA-MB-231, dihydrochloride), 5.8 µM.

With `CN1CC[C@H](c2c(O)cc(O)c3c(=O)cc(-c4ccccc4Cl)oc23)[C@H](O)C1` [Flavopiridol], the “effect on death of neuronal PC12 cells and sympathetic neurons” value in [1] is “suppress the death”. Besides, the IC50 with cortical neurons (Park et al. 1997, read-out: IC50, protection against camptothecin-induced cortical neuronal death) was 100 nM. The “concentration giving maximal protection from death” value in [2] (camptothecin-treated, minimum concentrations that fully inhibit DNA synthesis by proliferating PC12 cells) is 1 µM. Moreover, the cell death entry in assay [2] (day 6, in the presence or absence of camptothecin) was “approximately 30%”.

For the molecule `Cn1cnc2nc(NCCO)nc(NCc3ccccc3)c21` [iso-olomoucine], the “prevention of cell death of camptothecin-treated neuronal cells” value (in the assay on cortical neurons (cortical neurons); in assay [2] (PC12 cells / sympathetic neurons)) was “failed to prevent the cell death” each time.
